Test results reported in ChEMBL document CHEMBL4665662, “Designed P-glycoprotein inhibitors with triazol-tetrahydroisoquinoline-core increase doxorubicin-induced mortality in multidrug resistant K562/A02 cells” (Bioorg Med Chem, 2019).
Calls of active or inactive are those of the source. The calls are words filed in the database; no cut-off is given here.

How the values were obtained:
K562/A02 [1] = test: (§1) Reversal of P-gp mediated multidrug resistance in human K562/A02 cells overexpressing P-gp assessed as fold reduction in doxorubicin IC50 at 5 uM after 48 hrs by MTT assay relative to control; type: cell-based
K562/A02 [2] = test: Cytotoxicity against human K562/A02 cells overexpressing P-gp assessed as cell growth inhibition after 48 hrs by MTT assay; type: cell-based; conditions: K562/A02, 48 h
K562 = test: Cytotoxicity against human K562 cells assessed as cell growth inhibition after 48 hrs by MTT assay; type: cell-based; conditions: K562, 48 h
K562/A02 [3] = test: Inhibition of P-gp overexpressed in human K562/A02 cells assessed as increase doxorubicin accumulation at 5 uM preincubated for 60 mins followed by doxorubicin addition and measured after 90 mins by fluorescence spectrophotometry analysis; type: cell-based
K562/A02 [4] = test: Inhibition of P-gp overexpressed in human K562/A02 cells assessed as increase in doxorubicin accumulation preincubated for 60 mins followed by doxorubicin addition and measured after 90 mins by fluorescence spectrophotometry analysis; type: cell-based; conditions: dose microM 0.5-5, time 60.0 min
K562/A02 [5] = test: as §1, with “uM preincubated for 24 hrs followed by compound washout and 24 hrs later incubated with doxorubicin and measured” for “uM”; type: cell-based
K562/A02 [6] = test: as §1, with “uM preincubated for 24 hrs followed by compound washout and 12 hrs later incubated with doxorubicin and measured” for “uM”; type: cell-based
K562/A02 [7] = test: Reversal of P-gp mediated multidrug resistance in human K562/A02 cells overexpressing P-gp assessed as fold reduction in doxorubicin IC50 at 5 uM preincubated for 24 hrs followed by compound washout and 6 hrs later incubated with doxorubicin and measured after 48 hrs by MTT assay relative to control; type: cell-based
K562/A02 [8] = test: (§2) Reversal of P-gp mediated multidrug resistance in human K562/A02 cells overexpressing P-gp assessed as fold reduction in doxorubicin IC50 at 5 uM preincubated for 24 hrs followed by compound washout and later incubated with doxorubicin and measured after 48 hrs by MTT assay relative to control; type: cell-based
K562/A02 [9] = test: Effect on P-gp expression in human K562/A02 cells overexpressing P-gp at 0.5 to 5 uM after 72 hrs by Western blot analysis; type: functional, cell-based; conditions: dose microM 0.5-5, time 72.0 hrs
K562/A02 [10] = test: Reversal of P-gp mediated multidrug resistance in human K562/A02 cells overexpressing P-gp assessed as inhibition of Rh123 efflux by measuring remaining mean fluorescence intensity at 2 uM pretreated with Rh123 for 60 mins followed by incubation with compound for 90 mins by FACSCalibur flow cytometry analysis; type: cell-based
[11] = Reversal of P-gp mediated multidrug resistance in human K562/A02 cells overexpressing P-gp assessed as potentiation of doxorubicin-induced mortality by measuring reduction in doxorubicin IC50 measured after 48 hrs by MTT assay; type: cell-based; conditions: K562/A02, 48 h
K562/A02 [12] = test: Inhibition of P-gp overexpressed in human K562/A02 cells assessed as increase in doxorubicin accumulation at 0.1 uM preincubated for 60 mins followed by doxorubicin addition and measured after 90 mins by fluorescence spectrophotometry analysis; type: cell-based
K562/A02 [13] = test: Reversal of P-gp mediated multidrug resistance in human K562/A02 cells overexpressing P-gp assessed as potentiation of doxorubicin-induced mortality by measuring reduction in doxorubicin IC50 at 10 nM measured after 48 hrs by MTT assay; type: cell-based
K562/A02 [14] = test: as §2, with “time duration of action for reversal of doxorubicin-induced cytotoxicity” for “fold reduction in doxorubicin IC50”, “assay” for “assay relative to control”; type: cell-based

Row | Compound | Ratio IC50 (K562/A02 [1]) | IC50 (K562/A02 [2]) [µM] | IC50 (K562; read-out: IC50) [µM] | other results
1 | COc1cc2c(cc1OC)CN(CCn1cc(CNc3ccccc3NC(=O)c3sccc3C)nn1)CC2 | 3.09 | > 100 |  | 
2 | COc1cc2c(cc1OC)CN(CCc1ccc(-n3cc(CNc4ccccc4NC(=O)c4ccncc4)nn3)cc1)CC2 | 1.09 | > 100 | > 100 | 
3 | COc1cc2c(cc1OC)CN(CCc1ccc(-n3cc(CNc4ccccc4NC(=O)c4ccc5ccccc5n4)nn3)cc1)CC2 | 13.3 | 58.1 | > 100 | 
4 | COc1cc2c(cc1OC)CN(CCc1ccc(-n3cc(CNc4ccccc4NC(=O)c4ccccn4)nn3)cc1)CC2 | 11.8 | 52.1 | 45.1 | 
5 | COc1cc2c(cc1OC)CN(CCn1cc(CNc3ccccc3NC(=O)c3ccncc3)nn1)CC2 | 3.74 | > 100 |  | 
6 | COc1ccc(CCN(C)CCCC(C#N)(c2ccc(OC)c(OC)c2)C(C)C)cc1OC (stereo unspecified) |  | 59.2 |  | IC50 (K562): 68.3 µM; inhibition (K562/A02 [3]): Active; inhibition (K562/A02 [4]): Dose-dependent effect
7 | COc1cc2c(cc1OC)CN(CCn1cc(CNc3ccccc3NC(=O)c3cccs3)nn1)CC2 | 2.03 | > 100 |  | 
8 | COc1cc2c(cc1OC)CN(CCc1ccc(NC(=O)c3cc(OC)c(OC)cc3NC(=O)c3cnc4ccccc4c3)cc1)CC2 | 42.3 | 30.1 | 18.4 | Ratio IC50 (K562/A02 [5]): 2.4; Ratio IC50 (K562/A02 [6]): 4.12; Ratio IC50 (K562/A02 [7]): 10.2; Ratio IC50 (K562/A02 [8]): 19.2; inhibition (K562/A02 [4]): Dose-dependent effect
9 | COc1cc2c(cc1OC)CN(CCn1cc(CNc3ccccc3NC(=O)c3ccco3)nn1)CC2 | 1.28 | > 100 |  | 
10 | COc1cc2c(cc1OC)CN(CCc1ccc(-n3cc(CNc4ccccc4NC(=O)c4ccsc4)nn3)cc1)CC2 | 22.8 | 65.9 | > 100 | 
11 | COc1cc2c(cc1OC)CN(CCc1ccc(-n3cc(CNc4ccccc4NC(=O)c4ccsc4C)nn3)cc1)CC2 | 10.9 | 59.6 | > 100 | 
12 | COc1cc2c(cc1OC)CN(CCc1ccc(-n3cc(CNc4ccccc4NC(=O)c4ccc(C)s4)nn3)cc1)CC2 | 21.8 | > 100 | > 100 | 
13 | COc1cc2c(cc1OC)CN(CCc1ccc(-n3cc(CNc4ccccc4NC(=O)c4ccco4)nn3)cc1)CC2 | 11.2 | 58.4 | 25.8 | 
14 | COc1cc2c(cc1OC)CN(CCc1ccc(-n3cc(CNc4ccccc4NC(=O)c4cccs4)nn3)cc1)CC2 | 21.2 | 60.7 | > 100 | 
15 | COc1cc2c(cc1OC)CN(CCn1cc(CNc3ccccc3NC(=O)c3ccc(C)s3)nn1)CC2 | 2.86 | > 100 |  | 
16 | COc1cc2c(cc1OC)CN(CCc1ccc(-n3cc(CNc4ccccc4NC(=O)c4cccnc4Cl)nn3)cc1)CC2 | 2.79 | 47 | 42.7 | 
17 | COc1cc2c(cc1OC)CN(CCn1cc(CNc3ccccc3NC(=O)c3ccc(Cl)s3)nn1)CC2 | 3.38 | > 100 |  | 
18 | COc1cccc2c1C(=O)c1c(O)c3c(c(O)c1C2=O)C[C@@](O)(C(=O)CO)C[C@@H]3O[C@H]1C[C@H](N)[C@H](O)[C@H](C)O1 [DOXORUBICIN] |  | 55.5 |  | 
19 | COc1cc2c(cc1OC)CN(CCn1cc(CNc3ccccc3NC(=O)c3cc4ccccc4[nH]3)nn1)CC2 | 4.16 | > 100 |  | 
20 | COc1cc2c(cc1OC)CN(CCc1ccc(-n3cc(CNc4ccccc4NC(=O)c4cc5ccccc5[nH]4)nn3)cc1)CC2 | 6.57 | > 100 | > 100 | 
21 | COc1cc2c(cc1OC)CN(CCc1ccc(-n3cc(CNc4ccccc4NC(=O)c4ccc(Cl)s4)nn3)cc1)CC2 | 42 | 63.2 | > 100 | Activity (K562/A02 [9]): inactive; Activity (K562/A02 [10]): > 50%; EC50 [11]: 0.0468 µM; Ratio IC50 (K562/A02 [5]): 1.27; Ratio IC50 (K562/A02 [6]): 3.29; Ratio IC50 (K562/A02 [7]): 7.08; Ratio IC50 (K562/A02 [8]): 17.1; inhibition (K562/A02 [3]): Active; inhibition (K562/A02 [4]): Dose-dependent effect; inhibition (K562/A02 [12]): Active; inhibition (K562/A02 [13]): Active; TIME (K562/A02 [14]): > 24 h
22 | COc1cc2c(cc1OC)CN(CCn1cc(CNc3ccccc3NC(=O)c3ccccn3)nn1)CC2 | 3.88 | > 100 |  | 
23 | COc1cc2c(cc1OC)CN(CCn1cc(CNc3ccccc3NC(=O)c3ccsc3)nn1)CC2 | 2.27 | > 100 |  | 
24 | COc1cc2c(cc1OC)CN(CCn1cc(CNc3ccccc3NC(=O)c3cccnc3Cl)nn1)CC2 | 1.28 | > 100 |  | 
25 | COc1cc2c(cc1OC)CN(CCc1ccc(-n3cc(CNc4ccccc4NC(=O)c4cnc5ccccc5c4)nn3)cc1)CC2 | 3.82 | > 100 | > 100 | 
